Bridge positions count the residues as written; N and C are the ends. Square brackets hold non-standard residues; d marks the D form. Peptide text beside a SMILES is read from it. * marks the point of attachment. X5 = O=P(O)(O)OC[C@H]1O[C@H](*)[C@@H](O)[C@@H](O)[C@@H]1O; X3 = CC(=O)N[C@@H]1[C@@H](O)[C@H](O)[C@@H](CO)O[C@@H]1*; X7 = CC(=O)N[C@H]1[C@@H](O)[C@H](O)[C@@H](CO)O[C@@H]1*; αMan = OC[C@H]1O[C@H](*)[C@@H](O)[C@@H](O)[C@@H]1O; hSer = N[C@@H](CCO)C(=O)O
Target: T1, thermolysin (Bacillus thermoproteolyticus, UniProt P00800)
T1 sequence (P00800 233-548): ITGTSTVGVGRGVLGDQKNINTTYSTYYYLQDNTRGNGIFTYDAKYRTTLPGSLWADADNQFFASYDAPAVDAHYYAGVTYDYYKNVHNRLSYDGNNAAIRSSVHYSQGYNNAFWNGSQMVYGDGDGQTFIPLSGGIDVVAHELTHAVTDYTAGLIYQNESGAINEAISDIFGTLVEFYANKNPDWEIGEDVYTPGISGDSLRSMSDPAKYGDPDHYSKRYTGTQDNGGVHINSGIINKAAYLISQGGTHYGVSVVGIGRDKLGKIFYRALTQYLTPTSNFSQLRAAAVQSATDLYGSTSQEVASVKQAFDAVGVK
Assay: Proteolytic stability: half-life to thermolysin degradation
Type: in vitro ADME
Conditions: for Change in Half-Life to Thermolysin Degradation: glyco-variant minus its corresponding unglycosylated CBM (e.g. 2-1), *** not used in the correlation plot; for half-life: thermolysin (isolated protease), thermolysin degradation, mean of three trials ± SD, procedures as described previously (ESI ref 18)
Protocol: All error bars reported are standard deviations of data achieved from three separate trials.
cellulose that were determined in accordance with our procedures as described previously 18.
The results are presented as mean of three trials ± SD. *Denotes an averaged value of four trials

SMILES	Change in Half-Life to Thermolysin Degradation [min]	half-life [min]
CC[C@H](C)[C@@H]1NC(=O)CNC(=O)CNC(=O)[C@@H](NC(=O)[C@H](CCC(N)=O)NC(=O)CNC(=O)[C@H](Cc2ccc(O)cc2)NC(=O)[C@H](Cc2c[nH]cn2)NC(=O)[C@H](CS[C@H]2O[C@H](CO)[C@@H](O)[C@H](O)[C@@H]2O)NC(=O)[C@H](CCC(N)=O)NC(=O)[C@@H](N)[C@@H](C)O)CSSC[C@@H]2NC(=O)[C@H]([C@@H](C)O)NC(=O)[C@H]([C@@H](C)O)NC(=O)CNC(=O)[C@H](CO)NC(=O)[C@H](C)NC(=O)[C@H](CSSC[C@@H](C(=O)N[C@@H](CC(C)C)C(=O)O)NC(=O)[C@H](CCC(N)=O)NC(=O)[C@H](CO)NC(=O)[C@H](Cc3ccc(O)cc3)NC(=O)[C@H](Cc3ccc(O)cc3)NC(=O)[C@@H]3CCCN3C(=O)[C@H](CC(N)=O)NC(=O)[C@H](CC(C)C)NC(=O)[C@H](C(C)C)NC(=O)[C@H](CCC(N)=O)NC2=O)NC(=O)[C@H](C(C)C)NC(=O)[C@H]([C@@H](C)O)NC(=O)[C@@H]2CCCN2C(=O)CNC(=O)[C@H](CO)NC(=O)[C@H](Cc2ccc(O)cc2)NC(=O)CNC1=O [CBM variant 15] (H-TQC(αMan)HYGQCGGIGYSGPTVCASGTTCQVLNPYYSQCL-OH; disulfide 8-25, 19-35)	1.2	12 ± 1.8
CC[C@H](C)[C@@H]1NC(=O)CNC(=O)CNC(=O)[C@@H](NC(=O)[C@H](CCC(N)=O)NC(=O)CNC(=O)[C@H](Cc2ccc(O)cc2)NC(=O)[C@H](Cc2c[nH]cn2)NC(=O)[C@@H](CO)NC(=O)[C@H](CCC(N)=O)NC(=O)[C@@H](N)[C@@H](C)O)CSSC[C@@H]2NC(=O)[C@H]([C@@H](C)O)NC(=O)[C@H]([C@@H](C)O)NC(=O)CNC(=O)[C@H](CO)NC(=O)[C@H](C)NC(=O)[C@H](CSSC[C@@H](C(=O)N[C@@H](CC(C)C)C(=O)O)NC(=O)[C@H](CCC(N)=O)NC(=O)[C@H](CO)NC(=O)[C@H](Cc3ccc(O)cc3)NC(=O)[C@H](Cc3ccc(O)cc3)NC(=O)[C@@H]3CCCN3C(=O)[C@H](CC(N)=O)NC(=O)[C@H](CC(C)C)NC(=O)[C@H](C(C)C)NC(=O)[C@H](CCC(N)=O)NC2=O)NC(=O)[C@H](C(C)C)NC(=O)[C@H]([C@@H](C)O)NC(=O)[C@@H]2CCCN2C(=O)CNC(=O)[C@H](CO)NC(=O)[C@H](Cc2ccc(O)cc2)NC(=O)CNC1=O [CBM variant 16] (H-TQ[dS]HYGQCGGIGYSGPTVCASGTTCQVLNPYYSQCL-OH; disulfide 8-25, 19-35)		11.4 ± 2.4
CC[C@H](C)[C@@H]1NC(=O)CNC(=O)CNC(=O)[C@@H](NC(=O)[C@H](CCC(N)=O)NC(=O)CNC(=O)[C@H](Cc2ccc(O)cc2)NC(=O)[C@H](Cc2c[nH]cn2)NC(=O)[C@@H](CO[C@H]2O[C@H](CO)[C@@H](O)[C@H](O)[C@@H]2O)NC(=O)[C@H](CCC(N)=O)NC(=O)[C@@H](N)[C@@H](C)O)CSSC[C@@H]2NC(=O)[C@H]([C@@H](C)O)NC(=O)[C@H]([C@@H](C)O)NC(=O)CNC(=O)[C@H](CO)NC(=O)[C@H](C)NC(=O)[C@H](CSSC[C@@H](C(=O)N[C@@H](CC(C)C)C(=O)O)NC(=O)[C@H](CCC(N)=O)NC(=O)[C@H](CO)NC(=O)[C@H](Cc3ccc(O)cc3)NC(=O)[C@H](Cc3ccc(O)cc3)NC(=O)[C@@H]3CCCN3C(=O)[C@H](CC(N)=O)NC(=O)[C@H](CC(C)C)NC(=O)[C@H](C(C)C)NC(=O)[C@H](CCC(N)=O)NC2=O)NC(=O)[C@H](C(C)C)NC(=O)[C@H]([C@@H](C)O)NC(=O)[C@@H]2CCCN2C(=O)CNC(=O)[C@H](CO)NC(=O)[C@H](Cc2ccc(O)cc2)NC(=O)CNC1=O [CBM variant 17] (H-TQ[dS](αMan)HYGQCGGIGYSGPTVCASGTTCQVLNPYYSQCL-OH; disulfide 8-25, 19-35)		10.2 ± 1.2
CC[C@H](C)[C@@H]1NC(=O)CNC(=O)CNC(=O)[C@@H](NC(=O)[C@H](CCC(N)=O)NC(=O)CNC(=O)[C@H](Cc2ccc(O)cc2)NC(=O)[C@H](Cc2c[nH]cn2)NC(=O)[C@H](CCO)NC(=O)[C@H](CCC(N)=O)NC(=O)[C@@H](N)[C@@H](C)O)CSSC[C@@H]2NC(=O)[C@H]([C@@H](C)O)NC(=O)[C@H]([C@@H](C)O)NC(=O)CNC(=O)[C@H](CO)NC(=O)[C@H](C)NC(=O)[C@H](CSSC[C@@H](C(=O)N[C@@H](CC(C)C)C(=O)O)NC(=O)[C@H](CCC(N)=O)NC(=O)[C@H](CO)NC(=O)[C@H](Cc3ccc(O)cc3)NC(=O)[C@H](Cc3ccc(O)cc3)NC(=O)[C@@H]3CCCN3C(=O)[C@H](CC(N)=O)NC(=O)[C@H](CC(C)C)NC(=O)[C@H](C(C)C)NC(=O)[C@H](CCC(N)=O)NC2=O)NC(=O)[C@H](C(C)C)NC(=O)[C@H]([C@@H](C)O)NC(=O)[C@@H]2CCCN2C(=O)CNC(=O)[C@H](CO)NC(=O)[C@H](Cc2ccc(O)cc2)NC(=O)CNC1=O [CBM variant 18] (H-TQ[hSer]HYGQCGGIGYSGPTVCASGTTCQVLNPYYSQCL-OH; disulfide 8-25, 19-35)		18 ± 0.6
CC[C@H](C)[C@@H]1NC(=O)CNC(=O)CNC(=O)[C@@H](NC(=O)[C@H](CCC(N)=O)NC(=O)CNC(=O)[C@H](Cc2ccc(O)cc2)NC(=O)[C@H](Cc2c[nH]cn2)NC(=O)[C@H](CCO[C@H]2O[C@H](CO)[C@@H](O)[C@H](O)[C@@H]2O)NC(=O)[C@H](CCC(N)=O)NC(=O)[C@@H](N)[C@@H](C)O)CSSC[C@@H]2NC(=O)[C@H]([C@@H](C)O)NC(=O)[C@H]([C@@H](C)O)NC(=O)CNC(=O)[C@H](CO)NC(=O)[C@H](C)NC(=O)[C@H](CSSC[C@@H](C(=O)N[C@@H](CC(C)C)C(=O)O)NC(=O)[C@H](CCC(N)=O)NC(=O)[C@H](CO)NC(=O)[C@H](Cc3ccc(O)cc3)NC(=O)[C@H](Cc3ccc(O)cc3)NC(=O)[C@@H]3CCCN3C(=O)[C@H](CC(N)=O)NC(=O)[C@H](CC(C)C)NC(=O)[C@H](C(C)C)NC(=O)[C@H](CCC(N)=O)NC2=O)NC(=O)[C@H](C(C)C)NC(=O)[C@H]([C@@H](C)O)NC(=O)[C@@H]2CCCN2C(=O)CNC(=O)[C@H](CO)NC(=O)[C@H](Cc2ccc(O)cc2)NC(=O)CNC1=O [CBM variant 19] (H-TQ[hSer](αMan)HYGQCGGIGYSGPTVCASGTTCQVLNPYYSQCL-OH; disulfide 8-25, 19-35)	2.4	20.4 ± 4.2
CC[C@H](C)[C@@H]1NC(=O)CNC(=O)CNC(=O)[C@@H](NC(=O)[C@H](CCC(N)=O)NC(=O)CNC(=O)[C@H](Cc2ccc(O)cc2)NC(=O)[C@H](Cc2c[nH]cn2)NC(=O)[C@H](CO[C@H]2O[C@H](COP(=O)(O)O)[C@@H](O)[C@H](O)[C@@H]2O)NC(=O)[C@H](CCC(N)=O)NC(=O)[C@@H](N)[C@@H](C)O)CSSC[C@@H]2NC(=O)[C@H]([C@@H](C)O)NC(=O)[C@H]([C@@H](C)O)NC(=O)CNC(=O)[C@H](CO)NC(=O)[C@H](C)NC(=O)[C@H](CSSC[C@@H](C(=O)N[C@@H](CC(C)C)C(=O)O)NC(=O)[C@H](CCC(N)=O)NC(=O)[C@H](CO)NC(=O)[C@H](Cc3ccc(O)cc3)NC(=O)[C@H](Cc3ccc(O)cc3)NC(=O)[C@@H]3CCCN3C(=O)[C@H](CC(N)=O)NC(=O)[C@H](CC(C)C)NC(=O)[C@H](C(C)C)NC(=O)[C@H](CCC(N)=O)NC2=O)NC(=O)[C@H](C(C)C)NC(=O)[C@H]([C@@H](C)O)NC(=O)[C@@H]2CCCN2C(=O)CNC(=O)[C@H](CO)NC(=O)[C@H](Cc2ccc(O)cc2)NC(=O)CNC1=O [CBM variant 20] (H-TQS(X5)HYGQCGGIGYSGPTVCASGTTCQVLNPYYSQCL-OH; disulfide 8-25, 19-35)	20.4	34.2 ± 3.6
CC[C@H](C)[C@@H]1NC(=O)CNC(=O)CNC(=O)[C@@H](NC(=O)[C@H](CCC(N)=O)NC(=O)CNC(=O)[C@H](Cc2ccc(O)cc2)NC(=O)[C@H](Cc2c[nH]cn2)NC(=O)[C@H](CO[C@H]2O[C@H](CO)[C@@H](O)[C@H](O)[C@@H]2NC(C)=O)NC(=O)[C@H](CCC(N)=O)NC(=O)[C@@H](N)[C@@H](C)O)CSSC[C@@H]2NC(=O)[C@H]([C@@H](C)O)NC(=O)[C@H]([C@@H](C)O)NC(=O)CNC(=O)[C@H](CO)NC(=O)[C@H](C)NC(=O)[C@H](CSSC[C@@H](C(=O)N[C@@H](CC(C)C)C(=O)O)NC(=O)[C@H](CCC(N)=O)NC(=O)[C@H](CO)NC(=O)[C@H](Cc3ccc(O)cc3)NC(=O)[C@H](Cc3ccc(O)cc3)NC(=O)[C@@H]3CCCN3C(=O)[C@H](CC(N)=O)NC(=O)[C@H](CC(C)C)NC(=O)[C@H](C(C)C)NC(=O)[C@H](CCC(N)=O)NC2=O)NC(=O)[C@H](C(C)C)NC(=O)[C@H]([C@@H](C)O)NC(=O)[C@@H]2CCCN2C(=O)CNC(=O)[C@H](CO)NC(=O)[C@H](Cc2ccc(O)cc2)NC(=O)CNC1=O [CBM variant 21] (H-TQS(X7)HYGQCGGIGYSGPTVCASGTTCQVLNPYYSQCL-OH; disulfide 8-25, 19-35)	27.6	41.4 ± 5.4
CC[C@H](C)[C@@H]1NC(=O)CNC(=O)CNC(=O)[C@@H](NC(=O)[C@H](CCC(N)=O)NC(=O)CNC(=O)[C@H](Cc2ccc(O)cc2)NC(=O)[C@H](Cc2c[nH]cn2)NC(=O)[C@H](CO[C@H]2O[C@H](CO)[C@@H](O)[C@H](O)[C@H]2NC(C)=O)NC(=O)[C@H](CCC(N)=O)NC(=O)[C@@H](N)[C@@H](C)O)CSSC[C@@H]2NC(=O)[C@H]([C@@H](C)O)NC(=O)[C@H]([C@@H](C)O)NC(=O)CNC(=O)[C@H](CO)NC(=O)[C@H](C)NC(=O)[C@H](CSSC[C@@H](C(=O)N[C@@H](CC(C)C)C(=O)O)NC(=O)[C@H](CCC(N)=O)NC(=O)[C@H](CO)NC(=O)[C@H](Cc3ccc(O)cc3)NC(=O)[C@H](Cc3ccc(O)cc3)NC(=O)[C@@H]3CCCN3C(=O)[C@H](CC(N)=O)NC(=O)[C@H](CC(C)C)NC(=O)[C@H](C(C)C)NC(=O)[C@H](CCC(N)=O)NC2=O)NC(=O)[C@H](C(C)C)NC(=O)[C@H]([C@@H](C)O)NC(=O)[C@@H]2CCCN2C(=O)CNC(=O)[C@H](CO)NC(=O)[C@H](Cc2ccc(O)cc2)NC(=O)CNC1=O [CBM variant 22] (H-TQS(X3)HYGQCGGIGYSGPTVCASGTTCQVLNPYYSQCL-OH; disulfide 8-25, 19-35)	10.2	24 ± 0.6

Source: publication PMC5580309, “Molecular-scale features that govern the effects of O-glycosylation on a carbohydrate-binding module” (Chemical Science, 2015)
